Measurements: US20250144067A1, “PERSONALIZED STARVATION THERAPY FOR CANCER” (Faeth Therapeutics, Inc., priority 2021, published 2025)
Structures can show the parent of a compound that is named as a salt. Where two headings read alike, the source gives them in different places.

What was measured:
[1] = system: NCI-H292 lung cancer cells; experiment: FDA drug screening, complete media vs cholesterol-free media without statin (TABLE 1); format: cell-based, human
[2] = system: NCI-H292 lung cancer cells; experiment: FDA drug screening, complete media vs cholesterol-free media with simvastatin (TABLE 2); format: cell-based, human
[3] = Complete minus Cholesterol-free, >0 enhanced anti-cancer activity, about 0 neutral, <0 antagonist
[4] = NCI-H292 cells, cholesterol-free media without statin
[5] = NCI-H292 cells, cholesterol-free media with simvastatin 0.04 μM, cell growth value in FDA drug screen
[6] = NCI-H292 cells, complete media, cell growth value in FDA drug screen
[7] = complete media minus cholesterol-free media + simvastatin, >0 enhanced anti-cancer activity, about 0 neutral, <0 antagonist
[8] = Complete minus Cholesterol-free, greater than 0 enhanced anti-cancer activity, about 0 neutral, below 0 antagonist
[9] = NCI-H292 cells, FDA drug library screen, cholesterol-free media without statin
[10] = NCI-H292 cells, FDA drug library screen, complete media
[11] = NCI-H292 cells, drug in cholesterol-free media with simvastatin 0.04 μM
[12] = NCI-H292 cells, drug in complete media
[13] = complete media vs cholesterol-free media + simvastatin (0.04 μM), >0 enhanced anti-cancer activity, about 0 neutral, <0 antagonist
[14] = NCI-H292 cells, FDA drug library screen, cholesterol-free media with simvastatin 0.04 μM
[15] = NCI-H292 cells, cholesterol-free media without statin, FDA drug library screen
[16] = NCI-H292 cells, complete media, FDA drug library screen
[17] = complete vs cholesterol-free media, >0 enhanced anti-cancer activity, about 0 neutral, <0 antagonist
[18] = NCI-H292 cells, cholesterol-free media with simvastatin 0.04 μM, FDA drug library screen (TABLE 2)
[19] = NCI-H292 cells, complete media, FDA drug library screen (TABLE 2)
[20] = complete media minus cholesterol-free media + simvastatin (0.04 μM), >0 enhanced anti-cancer activity, about 0 neutral, <0 antagonist
[21] = NCI-H292 cells, FDA library drug in cholesterol-free media with simvastatin 0.04 μM
[22] = NCI-H292 cells, FDA library drug in complete media
[23] = complete vs cholesterol-free media, greater than 0 enhanced anti-cancer activity, about 0 neutral, below 0 antagonists
[24] = Complete minus Cholesterol-free, greater than 0 enhanced anti-cancer activity, about 0 neutral, below 0 antagonists
[25] = NCI-H292 cells in cholesterol-free media without statin
[26] = NCI-H292 cells in complete media
[27] = complete vs cholesterol-free media, […]

COc1ccc2cc([C@H](C)C(=O)O)ccc2c1 [Naproxen]
Difference [1, 3]: −0.23
Cholesterol-free [1, 4]: 1.155
Complete ([1]; NCI-H292 cells, complete media): 0.9257
Cholesterol-free media + simvastatin (0.04 μM) [2, 5]: 0.9241
Complete Media [2, 6]: 1.007
Difference [2, 7]: 0.08

CNS(=O)(=O)CCc1ccc2[nH]cc(C3CCN(C)CC3)c2c1 [Naratriptan (hydrochloride)]
Difference [1, 8]: −0.17
Cholesterol-free [1, 9]: 1.077
Complete [1, 10]: 0.9077
Cholesterol-free media + simvastatin (0.04 μM) [2, 11]: 1.179
Complete Media [2, 12]: 0.9588
Difference [2, 13]: −0.22

C[C@@H]1C/C=C/C=C/C=C/C=C/[C@H](O[C@@H]2O[C@H](C)[C@@H](O)[C@H](N)[C@@H]2O)C[C@@H]2O[C@](O)(C[C@@H](O)C[C@H]3O[C@@H]3/C=C/C(=O)O1)C[C@H](O)[C@H]2C(=O)O [Natamycin]
Difference [1, 8]: −0.07
Cholesterol-free [1, 9]: 1.061
Complete [1, 10]: 0.9893
Cholesterol-free media + simvastatin (0.04 μM) [2, 14]: 1.218
Complete Media [2, 10]: 1.127
Difference [2, 13]: −0.09

CC(C)[C@H]1CC[C@H](C(=O)N[C@H](Cc2ccccc2)C(=O)O)CC1 [Nateglinide]
Cholesterol-free [1, 15]: 1.149
Complete [1, 16]: 1.887
Difference [1, 17]: 0.74
Cholesterol-free media + simvastatin (0.04 μM) [2, 14]: 1.052
Complete Media [2, 10]: 1.823
Difference [2, 7]: 0.77

OC(CNCC(O)C1CCc2cc(F)ccc2O1)C1CCc2cc(F)ccc2O1 (stereo not shown) [Nebivolol (hydrochloride)]
Cholesterol-free [1, 15]: 0.567
Difference [1, 17]: 0.61
Cholesterol-free media + simvastatin (0.04 μM) [2, 18]: 0.9013
Complete Media [2, 19]: 0.8774
Difference [2, 20]: −0.02

[NH2][Pt]1([NH2])[O]CC(=O)[O]1 [Nedaplatin]
Difference ([1]; Complete minus Cholesterol-free, […]): −0.25
Cholesterol-free [1, 4]: 1.253
Complete ([1]; NCI-H292 cells, complete media): 1.005
Cholesterol-free media + simvastatin (0.04 μM) [2, 11]: 1.191
Complete Media [2, 12]: 0.986
Difference ([2]; complete media vs cholesterol-free media + simvastatin (0.04 μM), […]): −0.20

CCCc1c2oc(C(=O)O)cc(=O)c2cc2c(=O)cc(C(=O)O)n(CC)c12 [Nedocromil]
Cholesterol-free [1, 15]: 1.678
Complete [1, 16]: 1.893
Difference [1, 17]: 0.22
Cholesterol-free media + simvastatin (0.04 μM) [2, 21]: 1.951
Complete Media [2, 22]: 1.336
Difference [2, 13]: −0.61

CCc1nn(CCCN2CCN(c3cccc(Cl)c3)CC2)c(=O)n1CCOc1ccccc1 [Nefazodone (hydrochloride)]
Cholesterol-free [1, 15]: 0.8256
Complete [1, 16]: 1.655
Difference [1, 17]: 0.83
Cholesterol-free media + simvastatin (0.04 μM) [2, 21]: 1.025
Complete Media [2, 22]: 0.2752
Difference [2, 13]: −0.75

CN1CCOC(c2ccccc2)c2ccccc2C1 (stereo not shown) [Nefopam (hydrochloride)]
Cholesterol-free [1, 4]: 1.379
Complete ([1]; NCI-H292 cells, complete media): 0.9673
Difference [1, 23]: −0.41
Cholesterol-free media + simvastatin (0.04 μM) [2, 18]: 1.077
Complete Media [2, 19]: 1.041
Difference [2, 20]: −0.04

COc1nc(N)nc2c1ncn2[C@@H]1O[C@H](CO)[C@@H](O)[C@@H]1O [Nelarabine]
Difference [1, 24]: −0.59
Cholesterol-free [1, 25]: 1.291
Complete [1, 26]: 0.7049
Cholesterol-free media + simvastatin (0.04 μM) [2, 18]: 0.8366
Complete Media [2, 19]: 0.8526
Difference [2, 20]: 0.02

Cc1c(O)cccc1C(=O)N[C@@H](CSc1ccccc1)[C@H](O)CN1C[C@H]2CCCC[C@H]2C[C@H]1C(=O)NC(C)(C)C [Nelfinavir]
Difference [1, 3]: −0.25
Cholesterol-free [1, 4]: 1.095
Complete ([1]; NCI-H292 cells, complete media): 0.8463
Cholesterol-free media + simvastatin (0.04 μM) [2, 21]: 1.243
Complete Media [2, 22]: 0.8828
Difference [2, 13]: −0.36

NC[C@@H]1O[C@H](O[C@H]2[C@@H](O)[C@H](O[C@@H]3[C@@H](O)[C@H](N)C[C@H](N)[C@H]3O[C@H]3O[C@H](CN)[C@@H](O)[C@H](O)[C@H]3N)O[C@@H]2CO)[C@H](N)[C@@H](O)[C@@H]1O.O=S(=O)(O)O [Neomycin (sulfate)]
Difference [1, 8]: −0.17
Cholesterol-free [1, 9]: 1.592
Complete [1, 10]: 1.421
Cholesterol-free media + simvastatin (0.04 μM) [2, 14]: 0.8549
Complete Media [2, 10]: 1.021
Difference [2, 7]: 0.17

CN(C)C(=O)Oc1cccc([N+](C)(C)C)c1.[Br-] [Neostigmine (Bromide)]
Cholesterol-free [1]: 1.008
Complete [1]: 0.8252
Difference [1]: −0.18
Cholesterol-free media + simvastatin (0.04 μM) [2]: 0.9188
Complete Media [2]: 1.066
Difference [2]: 0.15

CN(C)C(=O)Oc1cccc([N+](C)(C)C)c1.COS(=O)(=O)[O-] [Neostigmine (methyl sulfate)]
Cholesterol-free [1, 4]: 1.718
Complete ([1]; NCI-H292 cells, complete media): 1.281
Difference [1, 27]: −0.44
Cholesterol-free media + simvastatin (0.04 μM) [2, 14]: 0.8206
Complete Media [2, 10]: 1.308
Difference ([2]; complete media minus cholesterol-free media + simvastatin, […]): 0.49

NC(=O)Cc1cccc(C(=O)c2ccccc2)c1N [Nepafenac]
Difference [1, 24]: −0.71
Cholesterol-free [1, 25]: 1.612
Complete [1, 26]: 0.8984
Cholesterol-free media + simvastatin (0.04 μM) [2, 18]: 1.737
Complete Media [2, 19]: 1.699
Difference [2, 20]: −0.04

CCOc1cc2ncc(C#N)c(Nc3ccc(OCc4ccccn4)c(Cl)c3)c2cc1NC(=O)/C=C/CN(C)C [Neratinib]
Cholesterol-free [1]: 0.06707
Complete [1]: 0.1268
Difference [1]: 0.06
Cholesterol-free media + simvastatin (0.04 μM) [2]: 0.3387
Complete Media [2]: 0.3007
Difference [2]: −0.04

C=C1C[C@H]2[C@@H]3CCC4=CC(=O)CC[C@@H]4[C@H]3CC[C@]2(C)[C@@]1(OC(C)=O)C(C)=O [Nestoron]
Cholesterol-free [1, 4]: 1.481
Complete ([1]; NCI-H292 cells, complete media): 1.095
Difference [1, 27]: −0.39
Cholesterol-free media + simvastatin (0.04 μM) [2, 18]: 0.9628
Complete Media [2, 19]: 0.9132
Difference ([2]; complete media minus cholesterol-free media + simvastatin (0.04 μM), […]): −0.05

CCCCCOc1ccccc1/C(=C\SC)n1ccnc1 [Neticonazole (hydrochloride)]
Cholesterol-free [1, 4]: 1.192
Complete ([1]; NCI-H292 cells, complete media): 0.8359
Difference [1, 23]: −0.36
Complete Media [2, 10]: 0.9839
Difference [2, 7]: 0.45

CCN[C@@H]1C[C@H](N)[C@@H](O[C@H]2OC(CN)=CC[C@H]2N)[C@H](O)[C@H]1O[C@H]1OC[C@](C)(O)[C@H](NC)[C@H]1O.CCN[C@@H]1C[C@H](N)[C@@H](O[C@H]2OC(CN)=CC[C@H]2N)[C@H](O)[C@H]1O[C@H]1OC[C@](C)(O)[C@H](NC)[C@H]1O.O=S(=O)(O)O.O=S(=O)(O)O.O=S(=O)(O)O.O=S(=O)(O)O.O=S(=O)(O)O [Netilmicin (sulfate)]
Cholesterol-free [1, 4]: 1.778
Complete ([1]; NCI-H292 cells, complete media): 1.428
Difference [1, 23]: −0.35
Cholesterol-free media + simvastatin (0.04 μM) [2, 14]: 1.19
Complete Media [2, 10]: 1.538
Difference [2, 7]: 0.35

Cc1ccccc1-c1cc(N2CCN(C)CC2)ncc1N(C)C(=O)C(C)(C)c1cc(C(F)(F)F)cc(C(F)(F)F)c1 [Netupitant]
Cholesterol-free [1, 4]: 1.25
Complete ([1]; NCI-H292 cells, complete media): 0.915
Difference [1, 23]: −0.34
Cholesterol-free media + simvastatin (0.04 μM) [2, 5]: 0.8546
Complete Media [2, 6]: 0.9156
Difference [2, 7]: 0.06

Cc1ccnc2c1NC(=O)c1cccnc1N2C1CC1 [Nevirapine]
Cholesterol-free [1, 15]: 0.7658
Complete [1, 16]: 1.137
Difference [1, 17]: 0.37
Cholesterol-free media + simvastatin (0.04 μM) [2, 21]: 1.384
Complete Media [2, 22]: 0.9254
Difference [2, 13]: −0.46

O=C(O)c1cccnc1 [Niacin]
Difference [1, 3]: −0.27
Cholesterol-free [1, 4]: 1.266
Complete ([1]; NCI-H292 cells, complete media): 0.9994
Cholesterol-free media + simvastatin (0.04 μM) [2, 5]: 1.244
Complete Media [2, 6]: 1.362
Difference [2, 7]: 0.12

COC(=O)C1=C(C)NC(C)=C(C(=O)OCCN(C)Cc2ccccc2)C1c1cccc([N+](=O)[O-])c1 (stereo not shown) [Nicardipine (hydrochloride)]
Difference [1, 3]: −0.01
Cholesterol-free [1, 15]: 0.9198
Complete [1, 16]: 0.9062
Cholesterol-free media + simvastatin (0.04 μM) [2, 21]: 1.292
Complete Media [2, 22]: 0.8256
Difference [2, 13]: −0.47

CO[C@]12C[C@@H](COC(=O)c3cncc(Br)c3)CN(C)[C@@H]1Cc1cn(C)c3cccc2c13 [Nicergoline]
Cholesterol-free [1, 15]: 0.9355
Complete [1, 16]: 1.445
Difference [1, 17]: 0.51
Cholesterol-free media + simvastatin (0.04 μM) [2, 21]: 1.053
Complete Media [2, 22]: 0.4708
Difference [2, 13]: −0.58

O=C(Nc1ccc([N+](=O)[O-])cc1Cl)c1cc(Cl)ccc1O [Niclosamide]
Cholesterol-free [1, 4]: 0.9593
Complete ([1]; NCI-H292 cells, complete media): 0.6271
Difference [1, 23]: −0.33
Cholesterol-free media + simvastatin (0.04 μM) [2, 14]: 0.365
Complete Media [2, 10]: 1.031
Difference [2, 7]: 0.67

O=C(NCCO[N+](=O)[O-])c1cccnc1 [Nicorandil]
Cholesterol-free [1, 15]: 0.8284
Complete [1, 16]: 1.354
Difference [1, 17]: 0.53
Cholesterol-free media + simvastatin (0.04 μM) [2, 5]: 0.9809
Complete Media [2, 6]: 1.055
Difference [2, 7]: 0.07

NC(=O)c1cccnc1 [Nicotinamide]
Difference [1, 8]: −0.17
Cholesterol-free [1, 9]: 0.8882
Complete [1, 10]: 0.716
Cholesterol-free media + simvastatin (0.04 μM) [2, 14]: 0.9853
Complete Media [2, 10]: 0.9029
Difference [2, 13]: −0.08
